Where two headings read alike, the source gives them in different places.
What was measured:
[1] = molecular target: KRAS G12D (Homo sapiens, UniProt P01116, G12D); test: GDP-GTP exchange assay (bodipy-GDP/GppNHp, SOS1), KRAS G12D; type: biochemical
[2] = molecular target: KRAS G12V (Homo sapiens, UniProt P01116, G12V); test: GDP-GTP exchange assay (bodipy-GDP/GppNHp, SOS1), KRAS G12V; type: biochemical
[3] = bodipy-loaded KRAS G12D 2.5 nM, 4 h pre-incubation, value for the most potent isomer quoted for certain compounds, read-out: G12D (KRAS G12D exchange assay IC50)
[4] = KRAS G12V mutant, value for the most potent isomer quoted for certain compounds, read-out: G12V (KRAS G12V exchange assay IC50)
[5] = Table H, column G12D, for compounds isolated as several atropisomers/diastereoisomers the value for the most potent isomer is quoted, read-out: KRAS G12D exchange assay IC50
[6] = Table H, column G12V, for compounds isolated as several atropisomers/diastereoisomers the value for the most potent isomer is quoted, read-out: KRAS G12V exchange assay IC50

Chain of KRAS G12D (P01116 1-188 isoform P01116-2 G12D): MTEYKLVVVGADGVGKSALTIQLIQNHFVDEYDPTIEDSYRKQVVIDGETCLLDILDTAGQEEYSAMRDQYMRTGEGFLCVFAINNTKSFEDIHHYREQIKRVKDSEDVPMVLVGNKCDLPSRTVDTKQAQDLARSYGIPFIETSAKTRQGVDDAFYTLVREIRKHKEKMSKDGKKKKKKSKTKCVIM
Chain of KRAS G12V (P01116 1-188 isoform P01116-2 G12V): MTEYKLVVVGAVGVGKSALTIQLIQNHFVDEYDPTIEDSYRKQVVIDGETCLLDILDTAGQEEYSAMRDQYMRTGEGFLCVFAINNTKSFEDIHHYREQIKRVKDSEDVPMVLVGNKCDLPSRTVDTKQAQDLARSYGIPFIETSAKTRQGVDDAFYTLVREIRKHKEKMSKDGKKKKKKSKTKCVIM

| IC50 [1, 3] | IC50 [2, 4] | IC50 [1, 5] | IC50 [2, 6] | Structure (SMILES) |
| --- | --- | --- | --- | --- |
| ≤ 100 nM | ≤ 100 nM |  |  | Cc1nc2c(F)c(-c3cccc(Cl)c3Cl)c(CCC#N)cc2c2c1cc([C@H]1C[C@H](Oc3cnn(C(F)(F)F)c3)CN1C(=O)C1CC1)n2[C@H]1[C@H]2CN[C@@H]1C2 [Example 374] |
| ≤ 100 nM | ≤ 100 nM |  |  | Cc1nc2c(F)c(-c3cccc(Cl)c3Cl)c(CCC#N)cc2c2c1cc([C@H]1C[C@H](O[C@H](C)c3ccccn3)[C@@H](C)N1C(=O)C1CC1)n2[C@H]1[C@H]2CN[C@@H]1C2 [Example 244] |
| ≤ 100 nM | ≤ 100 nM |  |  | Cc1nc2c(F)c(-c3cccc(Cl)c3Cl)c(CCC#N)cc2c2c1cc([C@H]1C[C@H](Oc3ccnc(N4CC(C(F)F)C4)c3)CN1C(=O)C1CC1)n2[C@H]1[C@H]2CN[C@@H]1C2 [Example 370] |
| ≤ 100 nM | ≤ 100 nM |  |  | CCc1cnn([C@H]2C[C@H](c3cc4c(C)nc5c(F)c(-c6cccc(Cl)c6Cl)c(CCC#N)cc5c4n3[C@H]3[C@H]4CN[C@@H]3C4)N(C(=O)C3CC3)C2)c1 [Example 280] |
| ≤ 100 nM | ≤ 100 nM |  |  | Cc1nc2c(F)c(-c3cccc(Cl)c3Cl)c(CCC#N)cc2c2c1cc([C@H]1C[C@H](OCc3cccc(C#N)c3F)CN1C(=O)C1CC1)n2[C@H]1[C@H]2CN[C@@H]1C2 [Example 151] |
| ≤ 100 nM | 100 to 1000 nM |  |  | Cc1nc2c(F)c(-c3cccc(Cl)c3Cl)c(CCC#N)cc2c2c1cc([C@H]1C[C@H](OC3CCc4ccccc43)CN1C(=O)C1CC1)n2[C@H]1[C@H]2CN[C@@H]1C2 (stereo partly shown) [Example 337] |
| ≤ 100 nM | ≤ 100 nM |  |  | COc1ccc(F)c(CO[C@H]2C[C@H](c3cc4c(C)nc5c(F)c(-c6cccc(Cl)c6Cl)c(CCC#N)cc5c4n3[C@H]3[C@H]4CN[C@@H]3C4)N(C(=O)C3CC3)C2)c1F [Example 186] |
| ≤ 100 nM | ≤ 100 nM |  |  | Cc1nc2c(F)c(-c3cccc(Cl)c3Cl)c(CCC#N)cc2c2c1cc([C@H]1C[C@H](OCc3nnn(C)c3C)CN1C(=O)C1CC1)n2[C@H]1[C@H]2CN[C@@H]1C2 [Example 234] |
| ≤ 100 nM | ≤ 100 nM |  |  | Cc1nc2c(F)c(-c3cccc(Cl)c3Cl)c(CCC#N)cc2c2c1cc([C@H]1C[C@H](Oc3nccs3)CN1C(=O)C1CC1)n2[C@H]1[C@H]2CN[C@@H]1C2 [Example 341] |
| ≤ 100 nM | ≤ 100 nM |  |  | Cc1cc(C)n([C@H]2C[C@H](c3cc4c(C)nc5c(F)c(-c6cccc(Cl)c6Cl)c(CCC#N)cc5c4n3[C@H]3[C@H]4CN[C@@H]3C4)N(C(=O)C3CC3)C2)n1 [Example 355] |
| ≤ 100 nM | ≤ 100 nM |  |  | Cc1nc2cc(O[C@H]3C[C@H](c4cc5c(C)nc6c(F)c(-c7cccc(Cl)c7Cl)c(CCC#N)cc6c5n4[C@H]4[C@H]5CN[C@@H]4C5)N(C(=O)C4CC4)C3)ccc2s1 [Example 132] |
| ≤ 100 nM | ≤ 100 nM |  |  | Cc1nc2c(F)c(-c3cccc(Cl)c3Cl)c(CCC#N)cc2c2c1cc([C@H]1C[C@H](OCc3ccccn3)CN1C(=O)C1CC1)n2[C@H]1[C@H]2CN[C@@H]1C2 [Example 94] |
| ≤ 100 nM | ≤ 100 nM |  |  | Cc1nc2c(F)c(-c3cccc(Cl)c3Cl)c(CCC#N)cc2c2c1cc([C@H]1C[C@H](Oc3cccc4c3cnn4C)CN1C(=O)C1CC1)n2[C@H]1[C@H]2CN[C@@H]1C2 [Example 133] |
| ≤ 100 nM | ≤ 100 nM |  |  | [2H]C([2H])(O[C@H]1C[C@H](c2cc3c(C)nc4c(F)c(-c5cccc(Cl)c5Cl)c(CCC#N)cc4c3n2[C@H]2[C@H]3CN[C@@H]2C3)N(C(=O)C2CC2)C1)c1cc(C)sn1 [Example 229] |
|  |  | ≤ 100 nM | ≤ 100 nM | Cc1nc2c(F)c(-c3cccc(Cl)c3Cl)c(CCC#N)cc2c2c1cc([C@H]1C[C@H](OCC3CCOCC3)CN1C(=O)C1CC1)n2[C@H]1[C@H]2CN[C@@H]1C2 [Example 29] |
| ≤ 100 nM | ≤ 100 nM |  |  | COCC1(c2cn([C@H]3C[C@H](c4cc5c(C)nc6c(F)c(-c7cccc(Cl)c7Cl)c(CCC#N)cc6c5n4[C@H]4[C@H]5CN[C@@H]4C5)N(C(=O)C4CC4)C3)nn2)CC1 [Example 383] |
| ≤ 100 nM | ≤ 100 nM |  |  | Cc1nc2c(F)c(-c3cccc(Cl)c3Cl)c(CCC#N)cc2c2c1cc([C@H]1C[C@H](OC3CC3C)CN1C(=O)C1CC1)n2[C@H]1[C@H]2CN[C@@H]1C2 (stereo partly shown) [Example 379] |
| ≤ 100 nM | ≤ 100 nM |  |  | Cc1nc2c(F)c(-c3cccc(Cl)c3Cl)c(CCC#N)cc2c2c1cc([C@H]1C[C@H](Oc3cccnc3)CN1C(=O)C1CC1)n2[C@H]1[C@H]2CN[C@@H]1C2 [Example 114] |
| ≤ 100 nM | ≤ 100 nM |  |  | Cc1nc2c(F)c(-c3cccc(Cl)c3Cl)c(CCC#N)cc2c2c1cc([C@H]1C[C@H](n3nc(CC#N)nc3C)CN1C(=O)C1CC1)n2[C@H]1[C@H]2CN[C@@H]1C2 [Example 351] |

| IC50 [1, 3] | IC50 [2, 4] | IC50 [1, 5] | IC50 [2, 6] | Structure (SMILES) |
| --- | --- | --- | --- | --- |
| ≤ 100 nM | ≤ 100 nM |  |  | Cc1cc(C)cc(O[C@H]2C[C@H](c3cc4c(C)nc5c(F)c(-c6cccc(Cl)c6Cl)c(CCC#N)cc5c4n3[C@H]3[C@H]4CN[C@@H]3C4)N(C(=O)C3CC3)C2)c1 [Example 166] |
| ≤ 100 nM | ≤ 100 nM |  |  | Cc1nc2c(F)c(-c3cccc(Cl)c3Cl)c(CCC#N)cc2c2c1cc([C@H]1C[C@H](Oc3nccc4ccccc34)CN1C(=O)C1CC1)n2[C@H]1[C@H]2CN[C@@H]1C2 [Example 131] |
| 100 to 1000 nM | ≤ 100 nM |  |  | N#CCCc1cc2c(nc(-c3ccc(N4CCCC4=O)nc3)c3cc([C@H]4C[C@H](OCc5c(F)cccc5F)CN4C(=O)C4CC4)n([C@H]4[C@H]5CN[C@@H]4C5)c32)c(F)c1-c1cccc(Cl)c1Cl [Example 207] |
| ≤ 100 nM | ≤ 100 nM |  |  | COC(=O)N1C[C@@H](Oc2ccccn2)C[C@@H]1c1cc2c(C)nc3c(F)c(-c4cccc(Cl)c4Cl)c(CCC#N)cc3c2n1[C@H]1[C@H]2CN[C@@H]1C2 [Example 162] |
| ≤ 100 nM | ≤ 100 nM |  |  | Cc1nc2c(F)c(-c3cccc(Cl)c3Cl)c(CCC#N)cc2c2c1cc([C@H]1C[C@H](OCc3ccccc3C#N)CN1C(=O)C1CC1)n2[C@H]1[C@H]2CN[C@@H]1C2 [Example 98] |
| ≤ 100 nM | ≤ 100 nM |  |  | Cc1nc2c(F)c(-c3cccc(Cl)c3Cl)c(CCC#N)cc2c2c1cc([C@H]1C[C@H](Oc3ccc(C#N)cc3F)CN1C(=O)C1CC1)n2[C@H]1[C@H]2CN[C@@H]1C2 [Example 291] |
| ≤ 100 nM | ≤ 100 nM |  |  | Cc1nn(CC(F)F)cc1O[C@H]1C[C@H](c2cc3c(C)nc4c(F)c(-c5cccc(Cl)c5Cl)c(CCC#N)cc4c3n2[C@H]2[C@H]3CN[C@@H]2C3)N(C(=O)C2CC2)C1 [Example 408] |
|  |  | ≤ 100 nM | ≤ 100 nM | Cc1nc2c(F)c(-c3cccc(Cl)c3Cl)c(CCC#N)cc2c2c1cc([C@H]1C[C@H](OC(F)(F)c3ccccc3)CN1C(=O)C1CC1)n2[C@H]1[C@H]2CN[C@@H]1C2 [Example 79, 3-(1-((1R,4R,5S)-2-Azabicyclo[2.1.1]hexan-5-yl)-2-((2R,4S)-1-(cyclopropanecarbonyl)-4-(difluoro(phenyl)methoxy)pyrrolidin-2-yl)-7-(2,3-dichlorophenyl)-6-fluoro-4-methyl-1H-pyrrolo[3,2-c]quinolin-8-yl)propanenitrile] |
| ≤ 100 nM | ≤ 100 nM |  |  | Cc1nc2c(F)c(-c3cccc(Cl)c3Cl)c(CCC#N)cc2c2c1cc([C@H]1C[C@H](OCc3ccccc3)CN1C(=O)C1(C)CC1)n2[C@H]1[C@H]2CN[C@@H]1C2 [Example 127] |
| ≤ 100 nM | ≤ 100 nM |  |  | Cc1nc2c(F)c(-c3cccc(Cl)c3Cl)c(CCC#N)cc2c2c1cc([C@H]1C[C@H](Oc3cncnc3)CN1C(=O)C1CC1)n2[C@H]1[C@H]2CN[C@@H]1C2 [Example 136] |
| ≤ 100 nM | ≤ 100 nM |  |  | CO[C@H]1C[C@H](CO[C@H]2C[C@H](c3cc4c(C)nc5c(F)c(-c6cccc(Cl)c6Cl)c(CCC#N)cc5c4n3[C@H]3[C@H]4CN[C@@H]3C4)N(C(=O)C3CC3)C2)C1 [Example 401] |
| ≤ 100 nM | ≤ 100 nM |  |  | N#CCCc1cc2c(nc(C3CCNC3)c3cc([C@H]4C[C@H](OCc5c(F)cccc5F)CN4C(=O)C4CC4)n([C@H]4[C@H]5CN[C@@H]4C5)c32)c(F)c1-c1cccc(Cl)c1Cl (stereo partly shown) [Example 239] |
| ≤ 100 nM | ≤ 100 nM |  |  | Cc1nc2c(F)c(-c3cccc(Cl)c3Cl)c(CCC#N)cc2c2c1cc([C@H]1C[C@H](n3cc(C4CCCC4)nn3)CN1C(=O)C1CC1)n2[C@H]1[C@H]2CN[C@@H]1C2 [Example 183] |
| ≤ 100 nM | ≤ 100 nM |  |  | Cc1nc2c(F)c(-c3cccc(Cl)c3Cl)c(CCC#N)cc2c2c1cc([C@H]1C[C@H](n3nncc3-c3ccccc3)CN1C(=O)C1CC1)n2[C@H]1[C@H]2CN[C@@H]1C2 [Example 143] |
| ≤ 100 nM | ≤ 100 nM |  |  | [2H]C([2H])(O[C@H]1C[C@H](c2cc3c(C)nc4c(F)c(-c5cccc(Cl)c5Cl)c(CCC#N)cc4c3n2[C@H]2[C@H]3CN[C@@H]2C3)N(C(=O)C2CC2)C1)c1nccs1 [Example 362] |
| ≤ 100 nM | ≤ 100 nM |  |  | Cc1cc(CO[C@H]2C[C@H](c3cc4c(C)nc5c(F)c(-c6cccc(Cl)c6Cl)c(CCC#N)cc5c4n3[C@H]3[C@H]4CN[C@@H]3C4)N(C(=O)C3CC3)[C@H]2C)ns1 [Example 212] |
| ≤ 100 nM | ≤ 100 nM |  |  | Cc1nc2c(F)c(-c3cccc(Cl)c3Cl)c(CCC#N)cc2c2c1cc([C@H]1C[C@H](OCc3cnco3)CN1C(=O)C1CC1)n2[C@H]1[C@H]2CN[C@@H]1C2 [Example 258] |
| ≤ 100 nM | ≤ 100 nM |  |  | COc1nccc(C#N)c1O[C@H]1C[C@H](c2cc3c(C)nc4c(F)c(-c5cccc(Cl)c5Cl)c(CCC#N)cc4c3n2[C@H]2[C@H]3CN[C@@H]2C3)N(C(=O)C2CC2)C1 [Example 298] |
| ≤ 100 nM | ≤ 100 nM |  |  | Cc1nc2c(F)c(-c3cccc(Cl)c3Cl)c(CCC#N)cc2c2c1cc([C@H]1C[C@H](Oc3cccc(C(F)(F)F)c3)CN1C(=O)C1CC1)n2[C@H]1[C@H]2CN[C@@H]1C2 [Example 172] |
